The values that follow come from paper PMC7017409 (ACS Omega, 2020).

For this test, the target named is T1, electric eel AChE (eeAChE) (Electrophorus electricus, UniProt O42275).
T1 construct: purchased type VI-S
The test is described as follows: biochemical. Format: biochemical. As for the experimental part: A UV–vis spectrophotometry-based assay was conducted to calculate the IC50 values for the diastereomeric mixtures (Table 6), according to Ellman et al.[37] and Mohamed et al.[38]
All of these solutions were prepared freshly directly before the assay was run. In 96-well plates, 160 μL of the 1.5 mM DTNB solution was first added, followed by 10 μL of different concentrations of test compounds. Then, a 0.22 U/mL enzyme solution was added (50 μL) and incubated at room temperature for 7 min. The background absorbance was measured at a wavelength of 412 nm on a POLARstar OPTIMA (BMG Labtech) microplate reader. The addition of 30 μL of the 15 mM ATCI solution initiated the enzymatic reaction, and the time elapsed between the beginning of the pipetting and the first measurement (t = 0) was noted and kept consistently at 2 min. Further kinetic measurements were made at different time intervals (t = 1, 2, 3, 4, 5 min) after a short episode of shaking (10 s). Each experiment was carried out in triplicate. Various control incubations containing 10 μL of methanol were run alongside the test compounds on each plate.

Usually IC50 stands for the concentration that inhibits the measured activity by half. Read a high IC50 as lower potency.

T1 sequence (O42275 24-633): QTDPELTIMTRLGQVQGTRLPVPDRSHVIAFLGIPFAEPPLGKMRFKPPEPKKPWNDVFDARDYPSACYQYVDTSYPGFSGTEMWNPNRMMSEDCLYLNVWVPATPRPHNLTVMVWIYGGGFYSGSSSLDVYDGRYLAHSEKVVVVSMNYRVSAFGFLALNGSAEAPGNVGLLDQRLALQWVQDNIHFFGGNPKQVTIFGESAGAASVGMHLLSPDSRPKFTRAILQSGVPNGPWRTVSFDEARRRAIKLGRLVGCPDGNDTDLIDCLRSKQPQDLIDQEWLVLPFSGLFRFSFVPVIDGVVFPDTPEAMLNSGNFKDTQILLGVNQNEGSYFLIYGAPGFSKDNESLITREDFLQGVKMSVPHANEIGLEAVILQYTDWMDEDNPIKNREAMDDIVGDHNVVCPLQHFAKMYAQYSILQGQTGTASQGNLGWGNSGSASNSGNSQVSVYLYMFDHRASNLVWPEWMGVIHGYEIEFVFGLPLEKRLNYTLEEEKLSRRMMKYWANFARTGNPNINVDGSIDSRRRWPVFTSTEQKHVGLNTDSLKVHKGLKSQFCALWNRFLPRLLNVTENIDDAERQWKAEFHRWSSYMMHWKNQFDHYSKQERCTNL

Compound `COc1cc2c(cc1OC)C(=O)C(C[C@H]1CCN([C@@H](C)c3ccccc3)[C@H](C)C1)C2` (stereo partly drawn) [2R,4S-4+4’c, R-5,6-Dimethoxy-2-((2R,4S-2-methyl-1-(S-1-phenylethyl)piperidin-4-yl)-methyl)-2,3-dihydro-1H-inden-1-one (4c) and S-5,6-Dimethoxy-2-((2R,4S-2-methyl-1-(S-1-phenylethyl)piperidin-4-yl)-methyl)-2,3-dihydro-1H-inden-1-one (4′c)] showed an IC50 of 24.3 ± 1.32 µM. On to `COc1cc2c(cc1OC)C(=O)C(CC1CCN([C@@H](C)c3ccccc3)CC1)C2` (stereo partly shown) [19+19’, R-5,6-Dimethoxy-2-((1-(S-1-phenylethyl)piperidin-4-yl)methyl)-2,3-dihydro-1H-inden-1-one (19) and S-5,6-Dimethoxy-2-((1-(S-1-phenylethyl)piperidin-4-yl)methyl)-2,3-dihydro-1H-inden-1-one (19′)], for which inhibition was half-maximal at 1.83 ± 0.04 µM (IC50). Where the note is “eeAChE IC50 compared with donepezil 1”, the “times less active than donepezil 1 (IC50 ratio)” value is given as “approximately 27 times”. Take `COc1cc2c(cc1OC)C(=O)C(C[C@@H]1CCN([C@@H](C)c3ccccc3)[C@@H](C)C1)C2` (stereo partly drawn) [2S,4R-4+4’b, R-5,6-Dimethoxy-2-((2S,4R-2-methyl-1-(S-1-phenylethyl)piperidin-4-yl)-methyl)-2,3-dihydro-1H-inden-1-one (4b) and S-5,6-Dimethoxy-2-((2S,4R-2-methyl-1-(S-1-phenylethyl)piperidin-4-yl)-methyl)-2,3-dihydro-1H-inden-1-one (4′b)]: 8.82 ± 0.21 µM corresponded to half-maximal inhibition (IC50). In turn, `COc1cc2c(cc1OC)C(=O)C(C[C@H]1CCN([C@@H](C)c3ccccc3)[C@@H](C)C1)C2` (stereo partly drawn) [2S,4S-4+4’a, R-5,6-Dimethoxy-2-((2S,4S-2-methyl-1-(S-1-phenylethyl)piperidin-4-yl)-methyl)-2,3-dihydro-1H-inden-1-one (4a) and y-5,6-Dimethoxy-2-((2S,4S-2-methyl-1-(S-1-phenylethyl)piperidin-4-yl)-methyl)-2,3-dihydro-1H-inden-1-one (4′a)] displayed an IC50 of 1.01 ± 0.03 µM. Further, the “times more active than the 2R,4S-anti-substituted analogues 4 + 4′c (IC50 ratio)” value (eeAChE IC50, syn versus anti) was “approximately 24 times”. Regarding `COc1cc2c(cc1OC)C(=O)C(C[C@@H]1CCN([C@@H](C)c3ccccc3)[C@H](C)C1)C2` (stereo partly drawn) [2R,4R-4+4’d, R-5,6-Dimethoxy-2-((2R,4R-2-methyl-1-(S-1-phenylethyl)piperidin-4-yl)-methyl)-2,3-dihydro-1H-inden-1-one (4d) and S-5,6-Dimethoxy-2-((2R,4R-2-methyl-1-(S-1-phenylethyl)piperidin-4-yl)-methyl)-2,3-dihydro-1H-inden-1-one (4′d)], inhibition was half-maximal at 13.1 ± 0.47 µM (IC50).
